Source: publication PMC12154456, “Dual Mechanisms of the Diazepine-Benzimidazole Derivative, DAB-19, in Modulating Glutamatergic Neurotransmission” (International Journal of Molecular Sciences, 2025)

System: T1, voltage-gated sodium channels (native Nav channels, isoform not identified)
T1 construct: native channels in isolated hippocampal CA1 pyramidal neurons
Experiment: whole-cell patch clamp of TTX-sensitive sodium current, steps from -110 to -10 mV
Assay type: cell-based, Rattus norvegicus

Compound: CC(C)(C)c1ccc(CN2C3=NCCCCN3c3ccccc32)cc1 [DAB-19]
- IC50: 8.3 ± 1.4 µM
